Patent US20180057505A1, “BICYCLIC HETEROARYL COMPOUNDS USEFUL AS INHIBITORS OF THE PAR-2 SIGNALING PATHWAY” (VERTEX PHARMACEUTICALS INCORPORATED, priority 2015, published 2018)

Legend:
Assay type in all cases: cell-based
PAR2 (HT-29 cells) [1] = biological target: T1, PAR2 (HT-29 cells) (Homo sapiens, UniProt P55085); assay: Ca FLIPR TETRA assay, ANTAGONIST mode, activator 3.1 U/mL trypsin; settings: for IC50: HT-29 cells, activator 3.1 U/mL trypsin
T1 construct: host or cells: HT-29
T1 sequence (P55085 26-397): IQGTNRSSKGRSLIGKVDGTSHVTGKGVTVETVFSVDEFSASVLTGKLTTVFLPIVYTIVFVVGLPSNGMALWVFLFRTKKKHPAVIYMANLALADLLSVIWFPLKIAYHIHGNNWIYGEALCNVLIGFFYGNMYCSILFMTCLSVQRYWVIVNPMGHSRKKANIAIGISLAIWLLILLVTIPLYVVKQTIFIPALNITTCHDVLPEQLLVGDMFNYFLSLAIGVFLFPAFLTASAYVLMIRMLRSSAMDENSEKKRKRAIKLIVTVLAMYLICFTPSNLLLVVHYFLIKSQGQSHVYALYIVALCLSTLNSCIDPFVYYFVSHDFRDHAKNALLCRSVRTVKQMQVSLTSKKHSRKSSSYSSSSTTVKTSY
Summary of the method: (§1)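 Antagonist mode, HT-29: cells O/N 37 °C, 1% FBS; calcium 5 dye 45 min 37 °C + 15 min RT; cpd (DMSO, HBSS-diluted) 30 min RT; activator at final conc. (8 μM SLIGKV / 1 U/mL thrombin / 3.1 U/mL trypsin / 0.6 μM UTP); FLIPR Tetra Ca2+ read.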

[2] = system: Thrombin-stimulated Ca2+ response in HT-29 cells; assay: Ca FLIPR TETRA assay, ANTAGONIST mode, activator 1 U/mL Thrombin; settings: HT-29 cells, activator 1 U/mL Thrombin
Summary of the method: as §1

PAR2 (HT-29 cells) [3] = biological target: T1, PAR2 (HT-29 cells); assay: Ca FLIPR TETRA assay, ANTAGONIST mode, activator 8 μM SLIGKV; settings: HT-29 cells, activator 8 μM SLIGKV
Summary of the method: as §1

[4] = system: UTP-stimulated Ca2+ response in HT-29 cells; assay: Ca FLIPR TETRA assay, ANTAGONIST mode, activator 0.6 μM UTP; settings: for IC50: HT-29 cells, activator 0.6 μM UTP
Summary of the method: as §1

[5] = maximal antagonist concentration per Method (A: 0.1, 1 or 2 μM; B: 50 μM)
[6] = Method A: maximal concentration of antagonist 0.1, 1 or 2 μM

Structure (SMILES) | IC50 (PAR2 (HT-29 cells) [1]; [5]) [nM] | IC50 ([2]; Homo sapiens) [nM] | IC50 (PAR2 (HT-29 cells) [3]; [5]) [nM] | IC50 ([4]; Homo sapiens) [nM] | IC50 (PAR2 (HT-29 cells) [1]; [6]) [nM] | IC50 (PAR2 (HT-29 cells) [3]; [6]) [nM] | IC50 [2] [nM] | IC50 [4] [nM] | Trypsin, % @ 50 (PAR2 (HT-29 cells) [1]; @ 50 (μM)) [% @ 50] | inhibition at 50 µM ([4]; Homo sapiens, HT-29, @ 50 (μM)) [%]
CC(C)(C)c1cc(-c2ccc(Cl)c(F)c2)nc2cc(C(=O)N3CCN(c4nc(C(=O)O)co4)CC3(C)C)oc12 [Example I-289] | 0.3 | > 2000 | 0.1 | > 2000 |  |  |  |  |  | 
CC(CC(=O)N1CCN(C(=O)c2cc3nc(-c4ccc(Cl)c(F)c4)cc(C(C)(C)C)c3o2)C(C)(C)C1)C(=O)O (single isomer, unassigned) [Example I-513] |  | > 2000 |  | > 2000 | 1.7 | 1.2 |  |  |  | 
CC(C)[C@H](CC(=O)N1CCN(C(=O)c2cc3nc(-c4ccc(Cl)c(F)c4)cc(C(C)(C)C)c3o2)C(C)(C)C1)C(=O)O [Example I-343] |  | 1700 |  | 2100 | 0.4 | 0.2 |  |  |  | 
CC(C)c1cc(-c2ccc(F)cc2)nc2cc(C(=O)N3CCN(C(=O)[C@H]4C[C@@H](O)C4)CC3(C)C)oc12 [Example I-135] | 42 | > 1000 | 24 | > 1000 |  |  |  |  |  | 
CC(C)(C)c1cc(-c2ccc(Cl)cc2)nc2cc(C(=O)N3CCN(c4ncc(C(=O)O)cc4F)CC3(C)C)oc12 [Example I-393] |  | > 1010 |  | 860 | 0.3 | 0.4 |  |  |  | 
CC(C)(C)C[C@@H](O)C(=O)N1CCN(C(=O)c2cc3nc(-c4ccc(F)cc4)nc(C4(C)CC4)c3o2)C(C)(C)C1 [Example I-129] | 270 | > 50000 | 250 | > 50000 |  |  |  |  |  | 
CC(C)(C)c1cc(C2CCC(F)(F)CC2)nc2cc(C(=O)N3CCN(c4cn[nH]c4)C(=O)C3(C)C)oc12 [Example I-310] |  | > 2000 |  | > 2000 | 110 | 61 |  |  |  | 
CC(C)c1cc(-c2ccc(C(F)(F)F)cc2)nc2cc(C(=O)N3CCNC(=O)C3(C)C)oc12 [Example I-155] | 28 | > 1000 | 14 | > 1000 |  |  |  |  |  | 
CC1(C)CCC(c2cc(C(C)(C)C)c3oc(C(=O)N4CCN(c5ccc(C(=O)O)cn5)CC4(C)C)cc3n2)CC1 [Example I-413] |  | 810 |  | 810 | 0.8 | 0.6 |  |  |  | 
Cn1cnnc1N1CCN(C(=O)c2cc3nc(C4CCC(C)(C)CC4)cc(C(C)(C)C)c3o2)C(C)(C)C1 [Example I-530] |  | > 2000 |  | > 2000 | 5 | 6.8 |  |  |  | 
CCC(O)(CC)C(=O)N1CCN(C(=O)c2cc3nc(-c4ccc(F)cc4)cc(C(C)C)c3o2)C(C)(C)C1 [Example I-69] | 52 | 37000 | 32 | > 32000 |  |  |  |  |  | 
CC1(C)CCC(c2cc(C(C)(C)C)c3oc(C(=O)N4CCC(=O)NCC4(C)C)cc3n2)CC1 [Example I-489] |  | > 2000 |  | > 2000 | 270 | 115 |  |  |  | 
CC(C)(C)c1cc(C2CCC(F)(F)CC2)nc2cc(C(=O)N3CCN(C(=O)C4CC(O)(C(F)(F)F)C4)C(=O)C3(C)C)oc12 (stereo not shown) [Example I-224] | 3.3 |  | 2.3 |  |  |  | > 2000 | > 2000 |  | 
C[C@H]1CN(C(=O)c2cc3nc(-c4ccc(F)cc4)nc(C4(C)CC4)c3o2)CCN1C(=O)[C@H](O)CC(C)(C)C [Example I-128] | 5300 | > 50000 | 540 | 44000 |  |  |  |  |  | 
CC(C)(C)c1cc(-c2ccc(Cl)cc2)nc2cc(C(=O)N3CCC(=O)NCC3(C)C)oc12 [Example I-322] |  | > 2000 |  | > 2000 | 240 | 92 |  |  |  | 
CC(C)(CN1CCN(C(=O)c2cc3nc(-c4ccc(Cl)c(F)c4)cc(C(C)(C)C)c3o2)C(C)(C)C1=O)C(=O)O [Example I-484] |  | > 1100 |  | > 1100 | 1.1 | 0.5 |  |  |  | 
CC(C)c1cc(-c2ccc(F)cc2)nc2cc(C(=O)N3CCN(C(=O)C4CCCC4)[C@@H](C)C3)oc12 [Example I-81] |  | > 50000 | 22 |  |  |  |  |  | 66 | 46
CC[C@@H](C)c1cc(-c2ccc(F)cc2)nc2cc(C(=O)N3CCNC(=O)C3(C)C)oc12 [Example I-245] | 4.8 | > 2000 | 2.5 | > 2000 |  |  |  |  |  | 
CC(C)(C)c1cc(C2CCC(Cl)(Cl)CC2)nc2cc(C(=O)N3CCN(C(=O)[C@H]4C[C@@](C)(O)C4)CC3(C)C)oc12 [Example I-305] |  | > 2000 |  | > 2000 | 3 | 1.5 |  |  |  | 

Structure (SMILES) | IC50 (PAR2 (HT-29 cells) [1]; [5]) [nM] | IC50 ([2]; Homo sapiens) [nM] | IC50 (PAR2 (HT-29 cells) [3]; [5]) [nM] | IC50 ([4]; Homo sapiens) [nM] | IC50 (PAR2 (HT-29 cells) [1]; [6]) [nM] | IC50 (PAR2 (HT-29 cells) [3]; [6]) [nM] | IC50 [2] [nM] | IC50 [4] [nM] | Trypsin, % @ 50 (PAR2 (HT-29 cells) [1]; @ 50 (μM)) [% @ 50] | inhibition at 50 µM ([4]; Homo sapiens, HT-29, @ 50 (μM)) [%]
CC(C)(C)c1cc(-c2ccc(F)cc2)nc2cc(C(=O)N3CCN(C(=O)CCC(=O)O)CC3(C)C)oc12 [Example I-194] | 22 | > 1000 | 9 | > 1000 |  |  |  |  |  | 
CC(C)(C)c1cc(-c2ccc(Cl)c(F)c2)nc2cc(C(=O)N3CCN(c4cccc(C(N)=O)n4)CC3(C)C)oc12 [Example I-546] |  | > 2000 |  | > 2000 | 7.4 | 5.4 |  |  |  | 
Cc1cc(C(=O)N2CCN(C(=O)c3cc4nc(C5CC6(CCC6)C5)cc(C(C)(C)C)c4o3)C(C)(C)C2)[nH]n1 [Example I-294] | 3.6 | > 2000 | 1.5 | > 2000 |  |  |  |  |  | 
CC(C)(C)c1cc(-c2ccc(F)cc2)nc2cc(C(=O)N3CCN(C(=O)C4(C(N)=O)CC4)CC3(C)C)oc12 [Example I-199] | 27 | > 1000 | 17 | > 1000 |  |  |  |  |  | 
CCS(=O)(=O)NCC(=O)N1CCN(C(=O)c2cc3nc(-c4ccc(Cl)c(F)c4)cc(C(C)(C)C)c3o2)C(C)(C)C1 [Example I-468] |  | > 2000 |  | > 2000 | 4.7 | 2.5 |  |  |  | 
Cc1ccnc(N2CCN(C(=O)c3cc4nc(-c5ccc(Cl)cc5)cc(C(C)(C)C)c4o3)C(C)(C)C2=O)n1 [Example I-340] |  | > 2000 |  | > 2000 | 1.7 | 0.9 |  |  |  | 
CC[C@@H](O)C(=O)N1CCN(C(=O)c2cc3nc(-c4ccc(F)cc4)cc(C4(C)CC4)c3o2)C(C)(C)C1 [Example I-28] | 3.5 | 8800 | 4.2 | 11000 |  |  |  |  |  | 
COCCOCC(=O)N1CCN(C(=O)c2cc3nc(-c4ccc(F)cc4)cc(C4(C)CC4)c3o2)C(C)(C)C1 [Example I-37] | 67 | 21000 | 57 | 17000 |  |  |  |  |  | 
CC1(C)CCC(c2cc(C(C)(C)C)c3oc(C(=O)N4CCN(c5cn[nH]c5)C(=O)C4(C)C)cc3n2)CC1 [Example I-315] |  | > 2000 |  | > 2000 | 12 | 5.7 |  |  |  | 
CC(C)c1nc(-c2ccc(F)cc2)nc2cc(C(=O)N3CCNC(=O)C3(C)C)oc12 [Example I-124] | 1900 | 24000 | 940 | 23000 |  |  |  |  |  | 
Cc1cc(-c2ccc(F)cc2)nc2cc(C(=O)N3CCN(C(=O)C(C)(C)O)CC3(C)C)oc12 [Example I-3] | 810 | 26000 | 710 | 18000 |  |  |  |  |  | 
Cc1cc(N2CCN(C(=O)c3cc4nc(C5CCC(C)(C)CC5)cc(C(C)(C)C)c4o3)C(C)(C)C2)ncc1C(=O)O [Example I-398] |  | > 1010 |  | 1010 | 0.5 | 0.4 |  |  |  | 
CC1(C)CCC(c2cc(C(C)(C)C)c3oc(C(=O)N4CCN(c5ccccn5)CC4(C)C)cc3n2)CC1 [Example I-270] | 51 | > 2000 | 21 | > 2000 |  |  |  |  |  | 
CC(C)c1cc(-c2ccc(F)cc2)nc2cc(C(=O)N3CCN(C(=O)C4CC4(F)F)CC3(C)C)oc12 (stereo not shown) [Example I-72] | 3.1 | 14000 | 2.3 | 13000 |  |  |  |  |  | 
Cc1cnc(N2CCN(C(=O)c3cc4nc(-c5ccc(Cl)c(F)c5)cc(C(C)(C)C)c4o3)C(C)(C)C2)nc1C(=O)O [Example I-520] |  | > 2000 |  | > 2000 | 0.4 | 0.3 |  |  |  | 
CN1CCN(C(=O)c2cc3nc(-c4ccc(Cl)cc4)cc(C(C)(C)C)c3o2)C(C)(C)C1=O [Example I-236] | 5 | > 2000 | 3.5 | > 2000 |  |  |  |  |  | 
CC(C)c1cc(-c2ccc(F)cc2)nc2cc(C(=O)N3CCN(C(=O)C4(O)CCOCC4)CC3(C)C)oc12 [Example I-23] | 71 | 7800 | 80 | 11000 |  |  |  |  |  | 
CC(C)(C)c1cc(-c2ccc(Cl)c(F)c2)nc2cc(C(=O)N3CCN(C(=O)[C@@H]4CC[C@H](C(=O)O)C4)CC3(C)C)oc12 [Example I-512] |  | > 2000 |  | > 2000 | 18 | 19 |  |  |  | 
